How the values were obtained:
[1] = Pharmacokinetics test in Balb/C mice; type: in vivo; settings: male, mouse, po, p.o. 5 mg/kg, plasma; for MRT inf: read-out: Average residence time MRT0−∞; for AUC(0-t): read-out: Curve area AUC0−t; for Cmax: read-out: Drug concentration in plasma Cmax; for Tmax: read-out: Peak time tmax; for half-life: read-out: Half life t1/2 (converted)
Method: Test Embodiment 6. Pharmacokinetics Test in Balb/C Mice
Taking Balb/C mice as the test animals, the pharmacokinetic behavior in the plasma of mice of the following compound embodiments was studied when orally administered at a dose of 5 mg/kg.
Balb/C Mouse 6/embodiment, male, Shanghai Jisijie Laboratory Animal Co., Ltd., animal production license number (SCXK (Shanghai) 2013-0006 No. 311620400001794).
0.5% HPMC (1% Tween 80), dissolved by sonication, to prepare a clear solution or a homogeneous suspension.
Balb/C mice, male; p.o. after overnight fasting, respectively, at a dose of 5 mg/kg, administered in a volume of 10 mL/kg.
Before and after administration of mice, at 0, 0.5, 1, 2, 4, 6, 8 and 24 hours, 0.1 mL of blood was collected from the orbit, placed in an EDTA-K2 test tube, and centrifuged at 6000 rpm at 4° C. for 6 min to separate the plasma, stored at −80° C.
1) 40 μL of plasma samples were added to 160 μL of acetonitrile for precipitation, mixed and centrifuged at 3500×g for 5 to 20 minutes.
2) 100 μL of the supernatant solution after treatment was taken for LC/MS/MS to analyze the concentration of the compounds to be tested.
2.6 Liquid Phase Analysis • Liquid phase condition: Shimadzu LC-20AD pump • MS conditions: AB Sciex API 4000 Mass Spectrometer • Chromatographic column: phenomenex Gemiu 5 μm C18 50×4.6 mm • Mobile phase: A solution was aqueous 0.1% formic acid solution, B solution was acetonitrile • Flow rate: 0.8 mL/min • Elution time: 0 to 4.0 minutes, the eluent was as follows:
The main parameters of pharmacokinetics were calculated with WinNonlin 8.2, and the results of the mice pharmacokinetic experiments were shown in the following table: […]

human PD-L1 protein = target: T1, human PD-L1 protein (Homo sapiens, UniProt Q9NZQ7); test: Thermal shift: melting temperature of PD-L1 protein; type: binding; settings: compound 10 μM, PD-L1 protein 2 μM, Tm minus DMSO vehicle control; read-out: ΔTm (° C.)
T1 construct: purchased Acro Biosystems PD1-H5229
T1 sequence (Q9NZQ7 19-238 limits assumed): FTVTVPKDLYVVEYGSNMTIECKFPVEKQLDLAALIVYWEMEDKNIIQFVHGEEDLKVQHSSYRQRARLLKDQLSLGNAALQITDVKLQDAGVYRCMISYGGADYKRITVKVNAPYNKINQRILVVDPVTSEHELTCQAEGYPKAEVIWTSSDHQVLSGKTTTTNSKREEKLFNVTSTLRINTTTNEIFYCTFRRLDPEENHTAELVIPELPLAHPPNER
In short: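 Human PD-L1 at 2 μM final was tested in […], 150 mM NaCl with SYPRO Orange, heated 25→95 °C at 0.03 °C/s in a PCR melt-curve run. Tm was taken per treatment; ΔTm is the shift relative to DMSO vehicle.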

human PD-1/PD-L1 binding = target: T2, human PD-1/PD-L1 binding (Homo sapiens, UniProt Q9NZQ7); test: Inhibition of human PD-1/PD-L1 binding (TR-FRET/HTRF); settings: TR-FRET, PD-L1-His and PD-1-Fc; read-out: PD-1/PD-L1 binding IC50
T2 construct: PD-L1-His protein (19 to 238 amino acids) (Abcam #ab167713); purchased Abcam (PD-L1-His); R&D (PD-1-Fc) ab167713; 1086-PD
T2 sequence (Q9NZQ7 19-238): as the sequence (Q9NZQ7 19-238 limits assumed) above
In short: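 PD-L1-His (aa 19–238, diluted to 10 nM) and PD-1-Fc (aa 25–167, diluted to 20 nM) incubated with compounds (10 μM or 1 μM top, 3-fold, 11 doses) 60 min at room temperature, then anti-6HIS Eu cryptate/anti-human IgG-XL665 added for 3 h RT or overnight 4 °C. HTRF 665/620 nm ratio gave inhibition and IC50.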

Structure (SMILES)	MRT inf [1] [h]	AUC(0-t) [1] [ng·h/mL]	Cmax [1] [ng/mL]	Tmax [1] [h]	ΔTm at 10 µM (human PD-L1 protein) [°C]	IC50 (human PD-1/PD-L1 binding) [nM]	half-life [1] [h]
COc1nc(-c2cccc(-c3cccc(NC(=O)c4nc5c(n4C)CCN(C)C5)c3Cl)c2Cl)cnc1CN1CC2(C1)CN(C(C)=O)C2 [Embodiment 152, N-(3′-(5-((6-Acetyl-2,6-diazaspiro[3.3]heptan-2-yl)methyl)-6-methoxypyrazin-2-yl)-2,2′-dichloro-[1,1′-biphenyl]-3-yl)-1,5-dimethyl-4,5,6,7-tetrahydro-1H-imidazo[4,5-c]pyridine-2-carboxamide]	10	1140	93	8	16.8	1.3	
COc1nc(-c2cccc(-c3cccc(NC(=O)c4nc5c(n4C)CCN(C)C5)c3Cl)c2Cl)ccc1CN1CC(NC(C)=O)C1 [Embodiment 180, N-(3′-(5-((3-Acetylaminoazetidin-1-yl)methyl)-6-methoxypyridin-2-yl)-2,2′-dichloro-[1,1′-biphenyl]-3-yl)-1,5-dimethyl-4,5,6,7-tetrahydro-1H-imidazo[4,5-c]pyridine-2-carboxamide]	12.9	887	116	2	20.6	3.8	9.5
COc1nc(-c2cccc(-c3cccc(NC(=O)c4nc5c(n4C)CCN(C)C5)c3Cl)c2Cl)ccc1CN1CC(C(=O)N(C)C)C1 [Embodiment 183, N-(2,2′-Dichloro-3′-(5-((3-(dimethylcarbamoyl)azetidin-1-yl)methyl)-6-methoxypyridin-2-yl)-[1,1′-biphenyl]-3-yl)-1,5-dimethyl-4,5,6,7-tetrahydro-1H-imidazo[4,5-c]pyridine-2-carboxamide]	16.8	1190	75	6	21	4.7	10.9
COc1nc(-c2cccc(-c3cccc(NC(=O)c4nc5c(n4C)CCN(C)C5)c3Cl)c2Cl)ccc1CN1CC2(C1)CN(C(=O)C(C)C)C2 [Embodiment 186, N-(2,2′-Dichloro-3′-(5-((6-isobutyryl-2,6-diazaspiro[3.3]heptan-2-yl)methyl)-6-methoxypyridin-2-yl)-[1,1′-biphenyl]-3-yl)-1,5-dimethyl-4,5,6,7-tetrahydro-1H-imidazo[4,5-c]pyridine-2-carboxamide]	22.5	537	31	2	21.4	8.1	15.2
COc1nc(-c2cccc(-c3cccc(NC(=O)c4nc5c(n4C)CCN(C)C5)c3Cl)c2Cl)ncc1CN1CC(CO)C1 [Embodiment 223, N-(2,2′-Dichloro-3′-(5-((3-(hydroxymethyl)azetidin-1-yl)methyl)-4-methoxypyrimidin-2-yl)-[1,1′-biphenyl]-3-yl)-1,5-dimethyl-4,5,6,7-tetrahydro-1H-imidazo[4,5-c]pyridine-2-carboxamide]	16	356	24	1	12.3	2.4	10.5
COc1nc(-c2cccc(-c3cccc(NC(=O)c4nc5c(n4C)CCN(C)C5)c3Cl)c2Cl)ccc1CN1CC2(CC(NC(C)=O)C2)C1 [Embodiment 234, N-(3′-(5-((6-Acetylamino-2-azaspiro[3.3]heptan-2-yl)methyl)-6-methoxypyridin-2-yl)-2,2′-dichloro-[1,1′-biphenyl]-3-yl)-1,5-dimethyl-4,5,6,7-tetrahydro-1H-imidazo[4,5-c]pyridine-2-carboxamide]	20.8	273	25	2	15.6	2.5	14.3
